Experimental data taken from US20260364030A1, “NOVEL SELECTIVE INHIBITORS OF LYSYL OXIDASES” (Syntara Limited, priority 2022, published 2026).

Key:
systemic LOX = details: mouse, in vivo; cited from earlier work
[1] = tested on: Salmonella typhimurium TA100; assay: Bacterial reverse mutation test, preliminary toxicity test (direct plate incorporation)
Protocol: In the preliminary toxicity test, for selection of test doses for the mutation assay, Salmonella typhimurium, TA100 was exposed to the test item at 39.0625, 78.125, 156.25, 312.5, 625, 1250, 2500 and 5000 μg/plate along with a DMSO control using direct plate incorporation.

[2] = tested on: TA98, TA100, TA1535 and TA1537 strains of Salmonella typhimurium and WP2uvrA (pKM101) strain of Escherichia coli; assay: Bacterial Reverse Mutation Test, initial and confirmatory mutation assay
Protocol: The test item Compound 1 was tested for its mutagenic potential in the bacterial reverse mutation assay. The study was conducted using TA98, TA100, TA1535 and TA1537 strains of Salmonella typhimurium and WP2uvrA (pKM101) strain of Escherichia coli in three phases; a preliminary toxicity test, an initial mutation assay and a confirmatory mutation assay. The bacterial tester strains were exposed to the test item in the presence and absence of metabolic activation system (S9 fraction prepared from Aroclor 1254 induced rat liver).
The bacterial tester strains were exposed to the test item in triplicate at 50, 158, 500, 1581 and 5000 μg/plate. The initial mutation assay was conducted using the direct plate incorporation mode of exposure whereas the confirmatory mutation assay was carried out using the pre-incubation mode of exposure. The vehicle control (DMSO) and the appropriate positive controls were tested simultaneously. The mean and standard deviation of numbers of revertant colonies were calculated for each test dose and the controls for all the tester strains.

Human MAO-B = molecular target: T1, Human MAO-B (Homo sapiens, UniProt P27338); assay: Inhibition of human recombinant MAO-B; assay type: biochemical; details: substrate benzylamine 100 μM
T1 construct: purchased Sigma Aldrich

[3] = Diffusion through human skin, Franz diffusion cell; assay type: in vitro ADME; details: topical formulation containing 2% Compound 1
From the text: Skin permeability is essential when considering topical application to treat skin conditions. One way to evaluate skin permeability is to use a Franz diffusion cell system with human skin as a membrane (Particle Sciences; Technical Brief 2009; Vol. 10). The donor compound (Compound 1), topically formulated, is applied on the top chamber and diffusion through the skin is monitored at relevant time points by sampling the solution in the receptor chamber via the sampling port. The concentration of Compound 1 was determined by quantitative HPLC analysis.

Human DAO = molecular target: T2, Human DAO (Homo sapiens, UniProt P19801); assay: Inhibition of human recombinant DAO; assay type: biochemical; details: 2 hours incubation; substrate putrescine 200 μM
T2 construct: Prof; Boehm, Department of Clinical Pharmacology, Medical University, Vienna (gift)

[4] = tested on: SSAO/VAP-1, MAO-B, MAO-A and DAO; assay: Selectivity with respect to other amine oxidases; assay type: biochemical, human
Protocol: Human recombinant SSAO/VAP-1 amine oxidase activity was determined using the coupled colorimetric method as described for monoamine oxidase, copper-containing amine oxidases and related enzymes [Holt A. and Palcic M., 2006]. Briefly, a cloned cDNA template corresponding to residues 34-763 of human SSAO/VAP-1, and incorporating a mouse Ig kappa (κ) signal sequence, N-terminal flag epitope tag and tobacco etch virus (TEV) cleavage site, was assembled in a mammalian expression vector (pLO-CMV) by Geneart AG. This vector containing human SSAO/VAP-1 residues was transfected into CHO-K1 glycosylation mutant cell line, Lee 8. A clone stably expressing human SSAO/VAP-1 was isolated and cultured in large scale. Active human SSAO/VAP-1 was purified and recovered using immunoaffinity chromatography. This was used as the source for SSAO/VAP-1 activity. A high-throughput fluorescent assay was developed using either 96 or 384 well format. Briefly, in a standard 384 well plate assay 25 μL of purified human SSAO/VAP-1 (0.25 μg/mL) in 0.1 M sodium phophate buffer (pH 7.4) was added into each well. […] The fluorescence unit (RFU) was read every 2.5 min for 30 min at 37 °C excitation 544 nm and emission 590 (Optima; BMG labtech). The slope/min of the kinetics for each well was calculated using MARS data analysis software (BMG labtech) and this value was used to deduce the IC50 value (Dotmatics). […]

[5] = Solubility and stability of test item in DMSO vehicle; assay type: physicochemical; details: for Stability in vehicle DMSO: at 20 μg/mL and 50000 μg/mL
Protocol: The test item was soluble in DMSO at 50 mg/mL and was used as the vehicle of choice in the mutation assay.

T2 sequence (P19801 20-751): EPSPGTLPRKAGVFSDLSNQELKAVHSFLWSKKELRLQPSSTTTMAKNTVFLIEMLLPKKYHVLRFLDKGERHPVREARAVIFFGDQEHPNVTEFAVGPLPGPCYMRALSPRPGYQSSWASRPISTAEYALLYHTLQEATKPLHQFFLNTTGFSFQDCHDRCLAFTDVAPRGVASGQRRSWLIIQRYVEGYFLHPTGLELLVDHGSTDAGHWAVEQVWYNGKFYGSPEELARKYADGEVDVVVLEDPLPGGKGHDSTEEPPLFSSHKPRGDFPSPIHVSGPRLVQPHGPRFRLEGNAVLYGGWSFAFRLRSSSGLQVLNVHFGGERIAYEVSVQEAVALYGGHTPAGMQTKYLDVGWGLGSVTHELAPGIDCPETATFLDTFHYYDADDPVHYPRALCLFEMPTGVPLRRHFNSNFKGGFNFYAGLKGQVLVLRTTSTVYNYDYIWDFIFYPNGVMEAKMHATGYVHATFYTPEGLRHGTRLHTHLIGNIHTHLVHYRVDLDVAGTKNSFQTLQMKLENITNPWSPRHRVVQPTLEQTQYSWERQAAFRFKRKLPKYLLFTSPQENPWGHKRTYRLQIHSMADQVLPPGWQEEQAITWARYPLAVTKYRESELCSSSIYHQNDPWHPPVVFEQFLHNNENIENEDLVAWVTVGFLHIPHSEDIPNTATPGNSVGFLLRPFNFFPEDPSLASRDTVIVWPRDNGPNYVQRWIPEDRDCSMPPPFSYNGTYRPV
T1 sequence (P27338 whole entry): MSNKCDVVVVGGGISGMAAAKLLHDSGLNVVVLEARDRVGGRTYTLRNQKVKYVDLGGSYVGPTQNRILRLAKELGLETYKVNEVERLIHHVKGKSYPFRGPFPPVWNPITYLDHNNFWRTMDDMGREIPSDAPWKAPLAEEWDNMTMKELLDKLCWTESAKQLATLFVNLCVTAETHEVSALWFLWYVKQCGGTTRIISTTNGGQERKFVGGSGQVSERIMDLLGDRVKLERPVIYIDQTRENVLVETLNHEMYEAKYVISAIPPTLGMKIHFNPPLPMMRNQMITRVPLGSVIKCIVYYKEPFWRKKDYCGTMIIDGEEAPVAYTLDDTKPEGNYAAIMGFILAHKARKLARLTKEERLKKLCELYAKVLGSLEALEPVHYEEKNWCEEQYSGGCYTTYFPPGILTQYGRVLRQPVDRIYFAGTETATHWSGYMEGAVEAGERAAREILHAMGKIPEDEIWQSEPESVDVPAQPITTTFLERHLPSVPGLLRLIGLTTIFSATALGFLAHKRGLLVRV

Row | Compound | Metastasis and survival (systemic LOX) | Toxicity to the tester strain (bacterial background lawn, revertant colony counts) ([1]; 39.0625-5000 μg/plate, presence and absence of metabolic activation) | Precipitation on the basal agar plates ([1]; up to 5000 μg/plate, presence or absence of metabolic activation) | Mutagenic increase in revertant colonies ([2]; 50-5000 μg/plate, with and without metabolic activation (S9), initial and confirmatory assay, all tester strains) | Mutagenicity ([2]; up to the top dose 5000 μg/plate) | IC50 (Human MAO-B) [µM] | Level in the receptor chamber ([3]; after 24 hours (FIG. 2)) | Permeability and diffusion through human skin ([3]; time dependent (FIG. 2)) | IC50 (Human DAO) [µM] | Selectivity for LOX family with respect to SSAO/VAP-1, MAO-B, MAO-A and DAO [4] | solubility ([5]; dmso, organic solvent or mixture) [mg/mL] | Stability in vehicle DMSO ([5]; refrigerated temperature) [days] | Stability in vehicle DMSO ([5]; room temperature) [days]
1 | N#CCCN [BAPN, β-aminopropionitrile, reference compound] | reducing metastasis and increasing survival | – | – | – | – | – | – | – | – | – | – | – | –
2 | NC/C(=C\F)CS(=O)(=O)c1ccccc1 [Compound 1, (E)-3-fluoro-2-((phenylsulfonyl)methyl)prop-2-en-1-amine] | – | did not exhibit toxicity to the tester strain | did not precipitate on the basal agar plates | did not show any positive mutagenic increase | not mutagenic | > 30 | high levels | good permeability and diffusion | > 100 | selectively inhibit members of the LOX family of enzymes | ≥ 50 | ≥ 4 | ≥ 0.25
